Assay type in all cases: cell-based
In assay [1] the test system is colon cancer cell line SW460. Kind of assay: MTT assay of cellular proliferation, SW460. The settings on record: Homo sapiens, SW480; read-out: EC50: Concentration that inhibits 50% of proliferation. As to the method:
(§1) Six lung cancer cell lines (NCI-H23, NCI-H460, NCI-H596, NCI-H2170, Calu-6 and A549), two colon cancer cell lines (HCT116 and SW460), one breast cancer cell line MDA-MB-231, one gastric cancer cell line NCI-N87, one prostate cancer cell line DU145, one cervical cancer cell line Hela, and one glioblastoma cell line T98G were obtained from ATCC. The T2 HCC cell line was derived from a mouse liver cancer model initiated by a transgene of MYC (Reference). All cell lines were cultured in DMEM (Gibco, Cleveland, TN, USA) supplemented with 5% fetal bovine serum (Gibco), penicillin (100 U/mL)-streptomycin (100 μg/mL) (Gibco, Cat. No. 15140-122), 2 mM L-glutamine (Gibco, 200 mM solution, Cat. No. 25030081), and 1 mM sodium pyruvate (Gibco, 100 mM solution, Cat. No. 11360070) at 37° C. in a humidified incubator that was maintained at 5% CO2.
(§2) The MTT assay measures cellular metabolic activity as a proxy for cell viability and involves the conversion of the water-soluble yellow dye MTT [3-(4,5-dimethylthiazol-2-yl)-2,5-diphenyltetrazolium bromide] into an insoluble purple formazan by the action of mitochondrial reductase. Formazan is then solubilized and its concentration is determined by measuring the optical density (OD) value at a wavelength of 570 nm. The value is in proportional to the number of live cells with excellent linearity up to ˜10^6 cells per well. The MTT assay was used to determine the EC50 value, the concentration of a compound that leads to 50% inhibition of cellular proliferation. Briefly, cells were split when growing to the mid-Log phase. Cells in 100 μL of culture medium were seeded into each well of 96-well microplates and cultivated for 15˜24 hours to reach a confluence of 20˜30% and were then exposed to drugs at concentrations ranging from 1 nM to 10 μM. At the endpoint, 20 μL of a MTT stock solution in DMSO (5 mg/mL) was added to each well that contains […] of DMEM. The microplates were left in the cell culture incubator for 3˜4 h before subjected to solubilization and determination of formazan at A570 in a microplate reader (BioTek ELX808iu). […] Therefore, these compounds might hold a broad utility in the treatment of a large variety of human malignancies.
On the technique in general: Tetrazolium dyes change colour on reduction, which living cells bring about.

For assay [2], the system named is liver cancer cell line T2 HCC. Kind of assay: Minimal effective concentration that elicits polyploidy, T2 HCC. The conditions noted are these: Mus musculus, read-out: MECP: Minimal effective concentration that elicits polyploidy.
Assay [3] has as its system breast cancer cell line MDA-MB-231. Kind of assay: MTT assay of cellular proliferation, MDA-MB-231. The settings on record: Homo sapiens, read-out: EC50: Concentration that inhibits 50% of proliferation. As to the method:
as §1, §2

In assay [4] the test system is gastric cancer cell line NCI-N87. Kind of assay: Minimal effective concentration that elicits polyploidy, NCI-N87. The settings on record: Homo sapiens, read-out: MECP: Minimal effective concentration that elicits polyploidy.
In assay [5] the test system is RPEMYC^H2B-GFP cells. Kind of assay: Mechanism-informed phenotypic screening assay (mitotic arrest, polyploidy; GE IN-Cell Analyzer 2000). The settings on record: 20 nM to 20 μM, 24, 48 or 72 hours, read-out: Min. Effective conc. for polyploidy (≥5%). The procedure:
We have Previously Developed a Mechanism-Informed Phenotypic Screening Assay to identify novel antimitotic agents (Li et al. 2019). Equipped with a prior understanding of the versatile functions of the chromosomal passenger protein (CPP) complex in orchestrating karyokinesis and cytokinesis, the screening assay is to score for phenotypes typically seen when the CPP complex is disabled. Specifically, the parameters for a positive hit are a temporary elevation of mitotic index (MI) at 24 hours of drug treatment and an accumulation of polyploid cells at 48 hours of drug treatment, indicative of mitotic arrest and cytokinetic failure respectively. These parameters exclude compounds that elicit only a prolonged arrest of cells in mitosis, a phenotype typically provoked by spindle toxins. The screening procedure is briefly summarized here. RPEMYC^H2B-GFP cells engineered to express a Histone 2B-EGFP fusion protein were passaged as batches of 96-well plates, 18-24 hours before exposure to the chemical compounds of the present disclosure at concentrations from 20 nM to 20 μM. At 24, 48 or 72 hours after initiation of treatment, cells were analyzed for either an arrest in mitosis or a change in DNA content by GE IN-Cell Analyzer 2000. As set forth in table 2 below, a value of greater than or equal to […] and less than or equal to 1.0 μM is marked e “A”; a value greater than […] and less than or equal to 10.0 μM is marked “B”; a value greater than 10.0 μM and less than or equal to 30.0 μM is marked “C”; and a value greater than 30.0 μM is marked “D.”

For assay [6], the system named is cervical cancer cell line Hela. Kind of assay: Minimal effective concentration that elicits polyploidy, Hela. The conditions noted are these: Homo sapiens, read-out: MECP: Minimal effective concentration that elicits polyploidy.
For assay [7], the system named is colon cancer cell line HCT116. Kind of assay: MTT assay of cellular proliferation, HCT116. The conditions noted are these: Homo sapiens, HCT-116, read-out: EC50: Concentration that inhibits 50% of proliferation. As to the method:
as §1, §2

For assay [8], the system named is lung cancer cell line NCI-H23. Kind of assay: Minimal effective concentration that elicits polyploidy, NCI-H23. The settings on record: Homo sapiens, read-out: MECP: Minimal effective concentration that elicits polyploidy.
The subject of assay [9] is SW480. Kind of assay: Minimal effective concentration that elicits polyploidy, SW480. The settings on record: Homo sapiens, read-out: MECP: Minimal effective concentration that elicits polyploidy.
For assay [10], the system named is breast cancer cell line MDA-MB-231. Kind of assay: Minimal effective concentration that elicits polyploidy, MDA-MB-231. The settings on record: Homo sapiens, read-out: MECP: Minimal effective concentration that elicits polyploidy.
Assay [11] concerns RPEMYC^H2B-GFP cells. Kind of assay: Mechanism-informed phenotypic screening assay (mitotic arrest, polyploidy; GE IN-Cell Analyzer 2000). The conditions noted are these: 20 nM to 20 μM, 24, 48 or 72 hours, read-out: Mitotic Arrest (≥5%).
Assay [12] deals with lung cancer cell line NCI-H23. Kind of assay: MTT assay of cellular proliferation, NCI-H23. The settings on record: Homo sapiens, read-out: EC50: Concentration that inhibits 50% of proliferation. The procedure:
as §1, §2

Assay [13] concerns cervical cancer cell line Hela. Kind of assay: MTT assay of cellular proliferation, Hela. The settings on record: Homo sapiens, read-out: EC50: Concentration that inhibits 50% of proliferation. As to the method:
as §1, §2

The test system of assay [14] is gastric cancer cell line NCI-N87. Kind of assay: MTT assay of cellular proliferation, NCI-N87. The settings on record: Homo sapiens, read-out: EC50: Concentration that inhibits 50% of proliferation. As to the method: as §1, §2
Assay [15] relates to lung cancer cell line A549. Kind of assay: MTT assay of cellular proliferation, A549. The settings on record: Homo sapiens, read-out: EC50: Concentration that inhibits 50% of proliferation. As to the method:
as §1, §2

The test system of assay [16] is colon cancer cell line HCT116. Kind of assay: Minimal effective concentration that elicits polyploidy, HCT116. The conditions noted are these: Homo sapiens, HCT-116, read-out: MECP: Minimal effective concentration that elicits polyploidy.
For assay [17], the system named is lung cancer cell line A549. Kind of assay: Minimal effective concentration that elicits polyploidy, A549. The settings on record: Homo sapiens, read-out: MECP: Minimal effective concentration that elicits polyploidy.
In assay [18] the test system is liver cancer cell line T2 HCC. Kind of assay: MTT assay of cellular proliferation, T2 HCC. The conditions noted are these: Mus musculus, read-out: EC50: Concentration that inhibits 50% of proliferation. The procedure: as §1, §2

Where two headings read alike, the source gives them in different places.

From patent US20240262803A1, “COMPOUNDS, COMPOSITIONS AND METHODS OF TREATING DISORDERS” (Chungdu Anticancer Bioscience Ltd, priority 2021, published 2024) come the findings set out here.

`COc1cc(Oc2ncccc2-c2ccncc2)cc(-n2cncn2)c1` [Compound 12, 2-(3-methoxy-5-(1H-1,2,4-triazol-1-yl)phenoxy)-3,4′-bipyridine]: the EC50 in assay [1], in [3], in assay [7], in [12], in assay [13] and in [14] was 1 to 1000 nM throughout. The EC50 in [15] and in assay [18] was 1 to 1000 nM each time. Besides, the minimal effective concentration in assay [2] was 0.001 to 1 µM; in assay [4], 0.001 to 1 µM; in assay [5] it was 1 µM; in assay [6], 0.001 to 1 µM; in [8] it was 0.001 to 1 µM; in assay [9], 0.001 to 1 µM. Also, the minimal effective concentration in [10] is 0.001 to 1 µM; in [11], 1 µM; in [16], 0.001 to 1 µM; in [17] it was 0.001 to 1 µM.

In the case of `COc1cc(OC)cc(Oc2cncc(-c3cccnc3)n2)c1` [Compound 82, 2-(3,5-dimethoxyphenoxy)-6-(pyridin-3-yl)pyrazine], the minimal effective concentration in assay [5] and in [11] was 0.001 to 10 µM throughout.

Turning to `CNC(=O)c1cc(Oc2ncccc2-c2ccncc2)cc(-c2cnn(C)c2)c1` [Compound 90, 3-([3,4′-bipyridin]-2-yloxy)-N-methyl-5-(1-methyl-1H-pyrazol-4-yl)benzamide], the minimal effective concentration in assay [5] and in assay [11] was 1 µM in each case.

`COC(=O)c1cc(OC)cc(Oc2nccnc2-c2ccncc2)c1` [Compound 17]: the minimal effective concentration was 0.001 to 1 µM in assay [2]; 0.001 to 1 µM in assay [4]; 1 µM in [5]; 0.001 to 1 µM in assay [6]; 0.001 to 1 µM in assay [8]; 0.001 to 1 µM in [10]. Further, the minimal effective concentration in [11] is 1 µM; in [16], 0.001 to 1 µM; in [17] it was 0.001 to 1 µM. The EC50 in [3] lay within 1 to 1000 nM; in [7], 1 to 1000 nM; in [12] it was 1 to 1000 nM; in assay [13], 1 to 1000 nM; in assay [14], 1 to 1000 nM; in assay [15], 10000 to 30000 nM. For the same compound, in assay [18], the EC50 lay within 1 to 1000 nM.

Take `CNC(=O)c1cc(OC)cc(Oc2ncccc2-c2cncnc2)c1` [Compound 91, 3-methoxy-N-methyl-5-((3-(pyrimidin-5-yl)pyridin-2-yl)oxy)benzamide]: the minimal effective concentration in assay [5] and in [11] was 1 µM each time.

As to `COc1cc(OC)cc(Oc2nccnc2-c2ccccc2)c1` [Compound 57, 2-(3,5-dimethoxyphenoxy)-3-phenylpyrazine], the minimal effective concentration in [5] and in assay [11] was 0.001 to 10 µM in each case.

With `CNC(=O)c1cc(OC)cc(Oc2nccnc2-c2ccncc2)c1` [Compound 18, 3-methoxy-N-methyl-5-((3-(pyridin-4-yl)pyrazin-2-yl)oxy)benzamide], the minimal effective concentration in assay [5] and in assay [11] was 1 µM throughout.

For the compound `COc1cc(Oc2ncccc2-c2ccnc(N)n2)cc(C(=O)O)c1` [Compound 24, 3-((3-(2-aminopyrimidin-4-yl)pyridin-2-yl)oxy)-5-methoxybenzoic acid], the minimal effective concentration in assay [5] and in assay [11] was more than 30 µM each time.

In the case of `CNC(=O)c1cc(Oc2ncccc2-c2ccnc(C)c2)cc(OC2CCOC2)c1` (stereo not shown) [Compound 96, N-methyl-3-((2′-methyl-[3,4′-bipyridin]-2-yl)oxy)-5-((tetrahydrofuran-3-yl)oxy)benzamide], the minimal effective concentration in [5] and in assay [11] was 1 µM each time.

With `Cc1noc(-c2cc(Oc3ncccc3-c3ccnc(N)n3)cc(-c3nc(C)no3)c2)n1` [Compound 22, 4-(2-(3,5-bis(3-methyl-1,2,4-oxadiazol-5-yl)phenoxy)pyridin-3-yl)pyrimidin-2-amine], the minimal effective concentration in assay [5] and in assay [11] was more than 30 µM in each case.

As for `CNC(=O)c1cc(OC)cc(Oc2ncccc2-c2cc(C)ncn2)c1` [Compound 97, 3-methoxy-N-methyl-5-((3-(6-methylpyrimidin-4-yl)pyridin-2-yl)oxy)benzamide], the minimal effective concentration in assay [5] and in [11] was 1 µM in each case.

As to `CCOCCOc1cc(-c2cccnc2Oc2cc(OC)cc(-n3cccn3)c2)ccn1` [Compound 86, 2′-(2-ethoxyethoxy)-2-(3-methoxy-5-(1H-pyrazol-1-yl)phenoxy)-3,4′-bipyridine], the minimal effective concentration in assay [5] and in [11] was 1 µM each time.

As to `COc1cc(Oc2ncccc2-c2ccncc2)cc(O[C@H]2CCOC2)c1` [Compound 94, (S)-2-(3-methoxy-5-((tetrahydrofuran-3-yl)oxy)phenoxy)-3,4′-bipyridine], the minimal effective concentration in assay [5] and in assay [11] was 1 µM throughout.

For the compound `COC(=O)c1cc(Oc2ncccc2-c2ccccc2)cc(C(=O)OC)c1` [Compound 56, dimethyl 5-((3-phenylpyridin-2-yl)oxy)isophthalate], the minimal effective concentration in [5] and in assay [11] was 1 µM each time.
